Experimental data from the NIST ThermoML archive (doi:10.1021/acs.jced.6b01043).
Numbers after ± are expanded uncertainties.

Test: relative permittivity at zero frequency (dimensionless); xn = mol fraction of the nth substance listed
Conditions: Gas, Reentrant cavity resonator

[Ar] [argon] + O=C=O
relative permittivity at zero frequency (255.1 K, 2068.9 kPa, x1 = 0.0505): 1.02661 ± 0.00055
relative permittivity at zero frequency (260.14 K, 2446.9 kPa, x1 = 0.0505): 1.03197 ± 0.00056
relative permittivity at zero frequency (266.15 K, 2919.5 kPa, x1 = 0.0505): 1.03887 ± 0.00056
relative permittivity at zero frequency (271.4 K, 3365.6 kPa, x1 = 0.0505): 1.04566 ± 0.00056
relative permittivity at zero frequency (273.2 K, 454.8 kPa, x1 = 0.2491): 1.004 ± 0.0004
relative permittivity at zero frequency (273.2 K, 962.7 kPa, x1 = 0.2491): 1.0088 ± 0.0004
relative permittivity at zero frequency (273.2 K, 1001.6 kPa, x1 = 0.2491): 1.0091 ± 0.0004
relative permittivity at zero frequency (273.2 K, 2004.3 kPa, x1 = 0.2491): 1.0195 ± 0.0004
relative permittivity at zero frequency (273.2 K, 2014.8 kPa, x1 = 0.2491): 1.0196 ± 0.0004
relative permittivity at zero frequency (273.2 K, 3008.7 kPa, x1 = 0.2491): 1.0314 ± 0.0004
relative permittivity at zero frequency (273.2 K, 4029 kPa, x1 = 0.2491): 1.0459 ± 0.0004
relative permittivity at zero frequency (273.2 K, 4487 kPa, x1 = 0.2491): 1.0535 ± 0.0004
relative permittivity at zero frequency (273.21 K, 506.6 kPa, x1 = 0.2491): 1.0045 ± 0.0004
relative permittivity at zero frequency (279.73 K, 4266.1 kPa, x1 = 0.0505): 1.06129 ± 0.00057
relative permittivity at zero frequency (279.73 K, 4267.8 kPa, x1 = 0.0505): 1.06132 ± 0.00057
relative permittivity at zero frequency (283.23 K, 492.8 kPa, x1 = 0.2491): 1.0042 ± 0.0004
relative permittivity at zero frequency (283.23 K, 969.4 kPa, x1 = 0.0505): 1.00945 ± 0.00055
relative permittivity at zero frequency (283.23 K, 4007.7 kPa, x1 = 0.0505): 1.05273 ± 0.00057
relative permittivity at zero frequency (283.23 K, 4493.9 kPa, x1 = 0.0505): 1.06407 ± 0.00057
relative permittivity at zero frequency (283.23 K, 6491.3 kPa, x1 = 0.2491): 1.0858 ± 0.0004
relative permittivity at zero frequency (283.24 K, 1029.9 kPa, x1 = 0.0505): 1.01008 ± 0.00055
relative permittivity at zero frequency (283.24 K, 2002 kPa, x1 = 0.2491): 1.0185 ± 0.0004
relative permittivity at zero frequency (283.24 K, 2006.1 kPa, x1 = 0.0505): 1.0212 ± 0.00055
relative permittivity at zero frequency (283.24 K, 2011.5 kPa, x1 = 0.0505): 1.02127 ± 0.00055
relative permittivity at zero frequency (283.24 K, 2992.8 kPa, x1 = 0.2491): 1.0294 ± 0.0004
relative permittivity at zero frequency (283.24 K, 2993.3 kPa, x1 = 0.2491): 1.0294 ± 0.0004
relative permittivity at zero frequency (283.24 K, 2998.2 kPa, x1 = 0.0505): 1.03482 ± 0.00056
relative permittivity at zero frequency (283.24 K, 3973.7 kPa, x1 = 0.0505): 1.05203 ± 0.00057
relative permittivity at zero frequency (283.24 K, 3995.6 kPa, x1 = 0.2491): 1.042 ± 0.0004
relative permittivity at zero frequency (283.24 K, 4006.4 kPa, x1 = 0.2491): 1.0421 ± 0.0004
relative permittivity at zero frequency (283.24 K, 4991.8 kPa, x1 = 0.2491): 1.0568 ± 0.0004
relative permittivity at zero frequency (283.24 K, 5983.5 kPa, x1 = 0.2491): 1.0748 ± 0.0004
relative permittivity at zero frequency (283.24 K, 5987 kPa, x1 = 0.2491): 1.0749 ± 0.0004
relative permittivity at zero frequency (283.25 K, 1008.9 kPa, x1 = 0.2491): 1.0088 ± 0.0004
relative permittivity at zero frequency (283.25 K, 2012.2 kPa, x1 = 0.2491): 1.0186 ± 0.0004
relative permittivity at zero frequency (283.44 K, 4710.8 kPa, x1 = 0.0505): 1.06985 ± 0.00058
relative permittivity at zero frequency (289.87 K, 5632 kPa, x1 = 0.0505): 1.09119 ± 0.00059
relative permittivity at zero frequency (292.67 K, 6086.3 kPa, x1 = 0.0505): 1.10382 ± 0.0006
relative permittivity at zero frequency (293.27 K, 1007.1 kPa, x1 = 0.2491): 1.0085 ± 0.0004
relative permittivity at zero frequency (293.27 K, 2005.7 kPa, x1 = 0.2491): 1.0177 ± 0.0004
relative permittivity at zero frequency (293.27 K, 3006.2 kPa, x1 = 0.2491): 1.0279 ± 0.0004
relative permittivity at zero frequency (293.27 K, 4006.6 kPa, x1 = 0.2491): 1.0394 ± 0.0004
relative permittivity at zero frequency (293.27 K, 4993.4 kPa, x1 = 0.2491): 1.0523 ± 0.0004
relative permittivity at zero frequency (293.27 K, 5847.6 kPa, x1 = 0.2491): 1.0651 ± 0.0004
relative permittivity at zero frequency (293.27 K, 6499.2 kPa, x1 = 0.2491): 1.0761 ± 0.0004
relative permittivity at zero frequency (293.28 K, 3999.6 kPa, x1 = 0.2491): 1.0393 ± 0.0004
relative permittivity at zero frequency (293.28 K, 5994.6 kPa, x1 = 0.2491): 1.0674 ± 0.0004
relative permittivity at zero frequency (294.27 K, 6419.2 kPa, x1 = 0.0505): 1.11591 ± 0.0006
relative permittivity at zero frequency (313.26 K, 2602.6 kPa, x1 = 0.0505): 1.02461 ± 0.00055
relative permittivity at zero frequency (313.26 K, 3052 kPa, x1 = 0.0505): 1.02963 ± 0.00056
relative permittivity at zero frequency (313.26 K, 3592.1 kPa, x1 = 0.0505): 1.03607 ± 0.00056
relative permittivity at zero frequency (313.28 K, 7083.6 kPa, x1 = 0.0505): 1.0967 ± 0.00059
relative permittivity at zero frequency (313.29 K, 4089.6 kPa, x1 = 0.0505): 1.04247 ± 0.00056
relative permittivity at zero frequency (313.3 K, 4550.7 kPa, x1 = 0.0505): 1.04884 ± 0.00057
relative permittivity at zero frequency (313.3 K, 5083 kPa, x1 = 0.0505): 1.05688 ± 0.00057
relative permittivity at zero frequency (313.3 K, 5566.4 kPa, x1 = 0.0505): 1.06488 ± 0.00058
relative permittivity at zero frequency (313.3 K, 6028.4 kPa, x1 = 0.0505): 1.07333 ± 0.00058
relative permittivity at zero frequency (313.3 K, 6550 kPa, x1 = 0.0505): 1.08408 ± 0.00059
relative permittivity at zero frequency (313.3 K, 7027.1 kPa, x1 = 0.0505): 1.09523 ± 0.00059
